Test results taken from patent publication US20110212960A1, “NEW COMPOUNDS FOR THE TREATMENT OF CNS DISORDER” (BOEHRINGER INGELHEIM INTERNATIONAL GMBH, priority 2009, published 2011).

Tests used:
human PDE9A2 = biological target: T1, human PDE9A2 (Homo sapiens, UniProt O76083); assay: PDE9A2 enzymatic activity assay (scintillation proximity assay); type: biochemical; conditions: for IC50: specific IC50 value lies within the given range, read-out: IC50 within range [nanomolar (nM)]
T1 construct: made in house; host or cells: Sf9 insect cells (infected; crude lysate used as enzyme source)
T1 sequence (O76083 1-533 isoform O76083-2): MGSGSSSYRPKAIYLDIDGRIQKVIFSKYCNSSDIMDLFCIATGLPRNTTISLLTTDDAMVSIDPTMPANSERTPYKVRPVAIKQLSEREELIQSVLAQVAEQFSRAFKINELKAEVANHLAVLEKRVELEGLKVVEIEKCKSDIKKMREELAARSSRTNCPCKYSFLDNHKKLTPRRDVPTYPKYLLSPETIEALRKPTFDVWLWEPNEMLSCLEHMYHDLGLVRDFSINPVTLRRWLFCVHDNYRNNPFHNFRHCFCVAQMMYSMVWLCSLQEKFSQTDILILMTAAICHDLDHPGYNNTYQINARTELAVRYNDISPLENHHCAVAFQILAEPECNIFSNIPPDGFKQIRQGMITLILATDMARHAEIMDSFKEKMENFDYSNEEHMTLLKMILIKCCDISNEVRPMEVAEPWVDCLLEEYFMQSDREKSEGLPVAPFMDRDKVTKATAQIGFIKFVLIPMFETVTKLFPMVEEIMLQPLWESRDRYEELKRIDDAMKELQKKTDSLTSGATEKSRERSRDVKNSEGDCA
Method: The PDE9A2 enzymatic activity assay was run as scintillation proximity assay (SPA), in general according to the protocol of the manufacturer (Amersham Biosciences, product number: TRKQ 7100).
As enzyme source, lysate (PBS with 1% Triton X-100 supplemented with protease inhibitors, cell debris removed by centrifugation at 13.000 rpm for 30 min) of SF 9 cell expressing the human PDE9A2 was used. The total protein amount included in the assay varied upon infection and production efficacy of the SF9 cells and lay in the range of 0.1-100 ng.
In general, the assay conditions were as follows: • total assay volume: 40 microliter • protein amount: 0.1-50 ng • substrate concentration (cGMP): 20 nanomolar; ˜1 mCi/l • incubation time: 60 min at room temperature • final DMSO concentration: 0.2-1%
The assays were run in 384-well format. The test reagents as well as the enzyme and the substrate were diluted in assay buffer. The assay buffer contained 50 mM Tris, 8.3 mM MgCl2, 1.7 mM EGTA, 0.1% BSA, 0.05% Tween 20; the pH of assay buffer was adjusted to 7.5. The reaction was stopped by applying a PDE9 specific inhibitor (e.g. compounds according to WO04099210 or WO04099211) in excess.
The activity of the positive control (minus the negative control=background) is set to 100% and activity in the presence of test compound is expressed relative to these 100%.

human PDE9A = human PDE9A (Homo sapiens, UniProt O76083); conditions: concentrations of up to 100 micromolar; cited from earlier work
Chain of human PDE9A (O76083 whole entry): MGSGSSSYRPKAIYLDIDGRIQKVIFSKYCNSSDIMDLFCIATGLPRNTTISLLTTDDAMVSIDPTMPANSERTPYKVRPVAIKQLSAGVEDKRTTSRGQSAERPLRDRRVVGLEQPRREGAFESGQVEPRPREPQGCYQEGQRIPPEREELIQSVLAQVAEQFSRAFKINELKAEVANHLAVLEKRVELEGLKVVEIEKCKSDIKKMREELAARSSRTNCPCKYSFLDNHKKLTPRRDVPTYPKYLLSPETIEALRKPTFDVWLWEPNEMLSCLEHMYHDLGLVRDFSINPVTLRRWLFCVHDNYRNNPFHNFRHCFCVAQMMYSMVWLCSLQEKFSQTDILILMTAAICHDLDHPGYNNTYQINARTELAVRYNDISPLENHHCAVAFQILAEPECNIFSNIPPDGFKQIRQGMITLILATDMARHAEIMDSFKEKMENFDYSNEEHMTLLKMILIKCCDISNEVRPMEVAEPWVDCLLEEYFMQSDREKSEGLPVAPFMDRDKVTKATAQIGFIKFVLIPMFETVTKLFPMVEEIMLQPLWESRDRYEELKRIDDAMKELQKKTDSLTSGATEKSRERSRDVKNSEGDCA

Murine PDE9A = biological target: T2, Murine PDE9A (Mus musculus, UniProt O70628); conditions: concentrations below 200 micromolar; cited from earlier work
T2 sequence (O70628 1-534): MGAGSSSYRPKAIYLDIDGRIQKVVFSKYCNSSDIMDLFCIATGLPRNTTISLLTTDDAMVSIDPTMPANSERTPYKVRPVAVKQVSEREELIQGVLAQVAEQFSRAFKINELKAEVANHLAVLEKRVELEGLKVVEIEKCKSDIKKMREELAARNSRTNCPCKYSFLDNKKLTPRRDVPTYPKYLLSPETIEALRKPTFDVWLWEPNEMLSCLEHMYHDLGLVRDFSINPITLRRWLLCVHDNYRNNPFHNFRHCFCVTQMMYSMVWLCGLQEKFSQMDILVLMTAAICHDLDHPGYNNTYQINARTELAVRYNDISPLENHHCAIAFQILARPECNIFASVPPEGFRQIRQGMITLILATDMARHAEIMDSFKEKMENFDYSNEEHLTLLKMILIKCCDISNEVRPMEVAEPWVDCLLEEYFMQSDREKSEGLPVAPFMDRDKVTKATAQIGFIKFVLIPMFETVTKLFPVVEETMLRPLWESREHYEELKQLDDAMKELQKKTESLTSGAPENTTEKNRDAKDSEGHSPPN

| Compound | inhibition on the isolated enzyme (human PDE9A) | other results |
| --- | --- | --- |
| Cc1ccncc1-n1ncc2c(=O)[nH]c(C3CC(C)(C)C3)nc21 [Example 35] |  | inhibition at 10 µM (human PDE9A2; at 10 micromolar concentration, read-out: % inhibition of PDE9A2): 50%; IC50 (human PDE9A2): 201 to 5000 nM |
| Cc1ccccc1-n1ncc2c(=O)[nH]c(C3CC3)nc21 [Example 39] |  | IC50 (human PDE9A2): 201 to 5000 nM |
| CC(C)Cn1c(=O)n(C)c(=O)c2[nH]cnc21 [IBMX] | no inhibition | inhibition of murine PDE9A (Murine PDE9A): not inhibited |
| CC(=O)Nc1ccc(-c2c[nH]c(=O)cn2)cc1 [SKF94120] | no inhibition |  |
| OCCN(CCO)c1nc(N2CCCCC2)c2nc(N(CCO)CCO)nc(N3CCCCC3)c2n1 [dipyridamole] | no inhibition |  |
| COc1ccc(C2CNC(=O)C2)cc1OC1CCCC1 (stereo not drawn) [rolipram] | no inhibition |  |
| CCOC(=O)C1=C[C@]2(CC)CCCN3CCc4c(n1c1ccccc41)[C@@H]32 [vinpocetine] | no inhibition |  |
